Assay results published in patent publication US10858335B2 (Rigel Pharmaceuticals, Inc., priority 2014, dated 2020).
pIC50: −log10 of the molar value.

System: GDF8 signaling (p-SMAD-3 (Ser423/425))
Assay: AlphaScreen SureFire SMAD3 (p-Ser423/425) assay, GDF8-stimulated cells (GDF pSMAD)
Type: cell-based
Details: Mus musculus, MPC-11, GDF8-stimulated pSMAD3, MPC11; tested as the salt form given; read-out: GDF pSMAD (MPC11) (μM), inhibition of GDF8 signaling

IC50 [µM]	SMILES
1.14	Nc1ncnc2ccc(-c3cccnc3-c3cccc(OC4COC4)c3)cc12 [compound 1030, 6-(2-(3-(oxetan-3-yloxy)phenyl)pyridin-3-yl)quinazolin-4-amine]
15.8	O=C(O)CNc1ncnc2ccc(-c3cccnc3-c3cc(Cl)ccc3F)cc12 [compound 1031, (6-(2-(5-chloro-2-fluorophenyl)pyridin-3-yl)quinazolin-4-yl)glycine]
0.735	Nc1ncnc2ccc(-c3cccnc3-c3cc(O)ccc3F)cc12 [compound 1006, 3-(3-(4-aminoquinazolin-6-yl)pyridin-2-yl)-4-fluorophenol]
2.08	Nc1ncnc2ccc(-c3cccnc3-c3cc(OC(F)F)ccc3Cl)cc12 [compound 1017, 6-(2-(2-chloro-5-(difluoromethoxy)phenyl)pyridin-3-yl)quinazolin-4-amine]
1.46	Cc1ccc(C)c(-c2ncccc2-c2ccc3ncnc(N)c3c2)c1 [compound 983, 6-(2-(2,5-dimethylphenyl)pyridin-3-yl)quinazolin-4-amine]

Same assay, conditions: Mus musculus, MPC-11, MPC11; GDF8-stimulated; p-SMAD3 AlphaScreen; read-out: GDF pSMAD (MPC11) (inhibition of GDF8 signaling)

pIC50	SMILES
5.07	Cc1c(Cl)cccc1-c1ncccc1-c1ccc2ncnn2c1 [compound 773, 6-(2-(3-Chloro-2-methylphenyl)pyridin-3-yl)-[1,2,4]triazolo[1,5-a]pyridine]
6.66	Fc1ccc(Cl)cc1-c1ncccc1-c1ccc2ncsc2c1 [compound 717, 6-(2-(5-Chloro-2-fluorophenyl)pyridin-3-yl)benzo[d]thiazole]
5.63	COc1cnc(-c2cc(Cl)ccc2F)c(-c2ccn3ncnc3c2)c1 [compound 858, 7-(2-(5-Chloro-2-fluorophenyl)-5-methoxypyridin-3-yl)-[1,2,4]triazolo[1,5-a]pyridine]
6.53	Cc1ccc(Cl)cc1-c1ncccc1-c1ccc2ncnc(N)c2c1 [compound 463, 6-(2-(5-Chloro-2-methylphenyl)pyridin-3-yl)quinazolin-4-amine]
5.83	Cc1cc(-c2ncc(-c3cccc(S(N)(=O)=O)c3)cc2-c2ccc3ncsc3c2)ccc1F [compound 347, 3-(5-(Benzo[d]thiazol-6-yl)-6-(4-fluoro-3-methylphenyl)pyridin-3-yl)benzenesulfonamide]
6.16	Clc1ccc(Cl)c(-c2ncccc2-c2ccc3ncsc3c2)c1 [compound 869, 6-(2-(2,5-Dichlorophenyl)pyridin-3-yl)benzo[d]thiazole]
5.17	Cc1cc(-c2ncc(COCC(N)=O)cc2-c2ccc3nccnc3c2)ccc1F [compound 233, 2-((6-(4-Fluoro-3-methylphenyl)-5-(quinoxalin-6-yl)pyridin-3-yl)methoxy)acetamide]
4.75	Cc1cccc(-c2ncccc2-c2ccc3nc(C)cn3c2)c1 [compound 532, 2-Methyl-6-(2-(m-tolyl)pyridin-3-yl)imidazo[1,2-a]pyridine]
6.13	Fc1ccc(-c2ncccc2-c2ccc3ncccc3n2)cc1C1CC1 [compound 216, 2-(2-(3-cyclopropyl-4-fluorophenyl)pyridin-3-yl)-1,5-naphthyridine]
5.67	COc1ncnc2ccc(-c3cccnc3-c3cc(Cl)c(F)cc3F)cc12 [compound 821, 6-(2-(5-Chloro-2,4-difluorophenyl)pyridin-3-yl)-4-methoxyquinazoline]
4.72	Cc1ccc(-c2ccc3[nH]ncc3c2)c(-c2ccc(F)c(C)c2)n1 [Compound 12, 5-(2-(4-Fluoro-3-methylphenyl)-6-methylpyridin-3-yl)-1H-indazole]
6.29	Cc1ccc(Oc2ncnc3ccc(-c4cccnc4-c4ccc(F)c(C)c4)cc23)cn1 [compound 432, 6-(2-(4-Fluoro-3-methylphenyl)pyridin-3-yl)-4-((6-methylpyridin-3-yl)oxy)quinazoline]
5.07	[2H]C([2H])([2H])c1cccc(-c2ncccc2-c2ccn3cncc3c2)c1 [compound 604, 7-(2-(3-(Methyl-d3)phenyl)pyridin-3-yl)imidazo[1,5-a]pyridine]
6.65	Cc1ccc(F)c(-c2ncccc2-c2ccc3ncsc3c2)c1 [compound 667, 6-(2-(2-Fluoro-5-methylphenyl)pyridin-3-yl)benzo[d]thiazole]
6.36	Clc1cccc(-c2ncccc2-c2ccc3ncnn3n2)c1 [compound 954, 6-(2-(3-Chlorophenyl)pyridin-3-yl)-[1,2,4]triazolo[1,5-b]pyridazine]
6.68	Cc1cc(-c2ncccc2-c2ccn3ncc(C(=O)NC4CC(C)(C)N(C)C(C)(C)C4)c3c2)ccc1F [compound 703, 5-(2-(4-Fluoro-3-methylphenyl)pyridin-3-yl)-N-(1,2,2,6,6-pentamethylpiperidin-4-yl)pyrazolo[1,5-a]pyridine-3-carboxamide]
4.96	Cc1cc(-c2ncccc2-c2ccc3ncc(N4CCCC4)n3c2)ccc1F [compound 561, 6-(2-(4-Fluoro-3-methylphenyl)pyridin-3-yl)-3-(pyrrolidin-1-yl)imidazo[1,2-a]pyridine]
5.42	COc1ccc(-c2ncccc2-c2ccc3[nH]ncc3c2)cc1 [Compound 118, 5-(2-(4-Methoxyphenyl)pyridin-3-yl)-1H-indazole]
5.06	Cc1cc(-c2ncccc2-c2ccc3c(cnn3C(=O)NCCN3CCCC3)c2)ccc1F [compound 636, 5-(2-(4-Fluoro-3-methylphenyl)pyridin-3-yl)-N-(2-(pyrrolidin-1-yl)ethyl)-1H-indazole-1-carboxamide]
4.76	COc1ccnc2ccc(-c3cccnc3-c3cc(Cl)c(F)cc3F)cc12 [compound 842, 6-(2-(5-Chloro-2,4-difluorophenyl)pyridin-3-yl)-4-methoxyquinoline]

pIC50	SMILES
5.01	Cc1cccc(-c2ncccc2-c2ccc3ncc(N4CCCC4)n3c2)c1 [compound 562, 3-(Pyrrolidin-1-yl)-6-(2-(m-tolyl)pyridin-3-yl)imidazo[1,2-a]pyridine]
6.73	O=c1nc[nH]c2ccc(-c3cccnc3-c3cccc(Cl)c3)cc12 [compound 389, 6-(2-(3-Chlorophenyl)pyridin-3-yl)quinazolin-4(1H)-one]
5.77	O=c1[nH]cnc2ccc(-c3cccnc3-c3ccc(F)c(Cl)c3)nc12 [compound 960, 6-(2-(3-Chloro-4-fluorophenyl)pyridin-3-yl)pyrido[3,2-d]pyrimidin-4(3H)-one]
5.27	Cc1cc(-c2ncc(NC(=O)c3ccncc3)cc2-c2ccc3ncsc3c2)ccc1F [compound 314, N-(5-(Benzo[d]thiazol-6-yl)-6-(4-fluoro-3-methylphenyl)pyridin-3-yl)isonicotinamide]
5.81	COC(=O)c1cc(-c2cccnc2-c2ccc(F)c(C)c2)cc2cn[nH]c12 [compound 190, Methyl 5-(2-(4-fluoro-3-methylphenyl)pyridin-3-yl)-1H-indazole-7-carboxylate]
5.03	Oc1cccc(-c2ncccc2-c2cnc3cn[nH]c3c2)c1 [Compound 144, 3-(3-(1H-Pyrazolo[4,3-b]pyridin-6-yl)pyridin-2-yl)phenol]
6.26	O=c1nc[nH]c2ccc(-c3cccnc3-c3ccc(F)c(Cl)c3)cc12 [compound 388, 6-(2-(3-Chloro-4-fluorophenyl)pyridin-3-yl)quinazolin-4(1H)-one]
6.35	Fc1ccc(-c2ncccc2-c2ccc3nccn3c2)cc1C1CC1 [compound 218, 6-(2-(3-Cyclopropyl-4-fluorophenyl)pyridin-3-yl)imidazo[1,2-a]pyridine]
5.76	CCn1cnc2ccc(-c3cccnc3-c3ccc(F)c(C)c3)cc21 [Compound 46, 1-Ethyl-6-(2-(4-fluoro-3-methylphenyl)pyridin-3-yl)-1H-benzo[d]imidazole]
6.83	c1cc(-c2ncccc2-c2ccc3ncsc3c2)cc(C2CC2)c1 [Compound 194, 6-(2-(3-Cyclopropylphenyl)pyridin-3-yl)benzo[d]thiazole]
5.39	Cc1cc(-c2ncc(NC(C)C)cc2-c2ccc3nccnc3c2)ccc1F [compound 241, 6-(4-Fluoro-3-methylphenyl)-N-isopropyl-5-(quinoxalin-6-yl)pyridin-3-amine]
4.97	Cc1cc(-c2ncc(CN3CCN(C)CC3)cc2-c2ccc3nccnc3c2)ccc1F [compound 230, 6-(2-(4-Fluoro-3-methylphenyl)-5-((4-methylpiperazin-1-yl)methyl)pyridin-3-yl)quinoxaline]
6.10	Fc1cc(F)c(-c2ncccc2-c2ccc3nccn3c2)cc1F [compound 694, 6-(2-(2,4,5-Trifluorophenyl)pyridin-3-yl)imidazo[1,2-a]pyridine]
6.21	Cc1cc(-c2ncccc2-c2ccc3ncc(C(=O)NCC(O)CO)n3c2)ccc1F (stereo not drawn) [compound 613, N-(2,3-Dihydroxypropyl)-6-(2-(4-fluoro-3-methylphenyl)pyridin-3-yl)imidazo[1,2-a]pyridine-3-carboxamide]
5.81	Cc1cc(-c2ncccc2-c2cn3ccnc3cc2C)ccc1F [compound 808, 6-(2-(4-Fluoro-3-methylphenyl)pyridin-3-yl)-7-methylimidazo[1,2-a]pyridine]
6.25	Clc1cccc(-c2ncccc2-c2ccc3ncnn3c2)c1 [compound 746, 6-(2-(3-Chlorophenyl)pyridin-3-yl)-[1,2,4]triazolo[1,5-a]pyridine]
6.49	Cc1cc(-c2ncc(NCc3cncs3)cc2-c2ccc3ncsc3c2)ccc1F [compound 327, 5-(Benzo[d]thiazol-6-yl)-6-(4-fluoro-3-methylphenyl)-N-(thiazol-5-ylmethyl)pyridin-3-amine]
5.00	Fc1cnc(-c2ccc(F)c(Cl)c2)c(-c2ccn3ncnc3c2)c1 [compound 860, 7-(2-(3-Chloro-4-fluorophenyl)-5-fluoropyridin-3-yl)-[1,2,4]triazolo[1,5-a]pyridine]
5.04	Cc1cc(-c2ncccc2-c2ccc3nncn3c2)ccc1F [Compound 161, 6-(2-(4-Fluoro-3-methylphenyl)pyridin-3-yl)-[1,2,4]triazolo[4,3-a]pyridine]
7.16	Nc1ncnc2ccc(-c3cccnc3-c3cc(Cl)ccc3F)cc12 [compound 449, 6-(2-(5-Chloro-2-fluorophenyl)pyridin-3-yl)quinazolin-4-amine]
